Earlier results as cited in patent publication US6077934A (priority 1998, dated 2000).

Tested on: Swiss Webster mice
Conditions: mouse, in vivo

Substance: GCX1 X2 EPWC [contryphan-R]
- symptomatology after intracranial injection: "stiff-tail syndrome"
